Laboratory results taken from patent US20240065997A1, “Methods and Compositions for Improving Insulin Production and Secretion” (ABBOTT LABORATORIES, priority 2021, published 2024).

Legend:
INS-1 cells [1] = assay: 2-deoxy-[3H]d-glucose (2-DG) uptake in INS-1 cells; type: cell-based, rat; conditions: overnight incubation, lysine 10 mM, arginine 5 mM, HMB 25 μM, 2-DG uptake over 10 min, FIG. 1
Experimental: 2-deoxy-[3H]d-glucose (2-DG) (10 μmol/L) uptake was measured over a 10 minute period under conditions in which the uptake was linear. The uptake of 2-DG was terminated after 10 minutes by rapidly aspirating off the radioactive incubation medium and washing the cells three times in ice-cold phosphate-buffered saline. The radioactivity associated with the cells was determined by cell lysis in 0.5 N NaOH with neutralization by the addition of 0.5 N HCl, followed by liquid scintillation. Aliquots from each well were used to determine the protein concentration using the bicinchoninic acid (BCA) Protein assay.

INS-1 cells [2] = assay: Acute insulin secretion in INS-1 cells (Rat Insulin Enzyme Immunoassay); type: cell-based; conditions: glucose 10 mM, arginine 5 mM, lysine 10 mM, HMB 25 μM, 2 hours, FIG. 3
Experimental: Acute insulin secretion was determined by incubating INS-1 cells in the presence of the following effectors: glucose (10 mM), and the effectors arginine (5 mM), lysine (10 mM), HMB (25 μM), and a combination of arginine (5 mM), lysine (10 mM), and HMB (25 μM) for 2 hours. INS-1 cells without effectors were used as a control. Insulin was detected using the Rat Insulin Enzyme Immunoassay (RIEI) Kit (Mercodia, Sweden) according to the manufacturer's instructions.

INS-1 cells [3] = assay: Insulin production by INS-1 cells (24 h effectors, then glucose 2 h; RIEI Kit); type: cell-based, rat; conditions: arginine 5 mM, lysine 10 mM, HMB 25 μM for 24 hours, then glucose 10 mM 2 hours, FIG. 4
Experimental: Insulin production by β-cells was evaluated by incubating INS-1 cells in the presence of the following effectors: arginine (5 mM), lysine (10 mM), HMB (25 μM), and a combination of arginine (5 mM), lysine (10 mM), and HMB (25 μM). INS-1 cells without effectors were again used as a control. The cells were incubated with each of the above mentioned effectors for 24 hours. Following the initial 24 hour incubation period with the effectors, the same INS-1 cells were incubated with glucose (10 mM) for 2 hours. Insulin was again detected using the RIEI Kit according to the manufacturer's instructions.

INS-1 cells [4] = assay: MTT cell viability assay in palmitate-treated INS-1 cells; type: cell-based, rat; conditions: palmitate 250 μM 24 hours, effectors added 3 hours before (arginine 5 mM, lysine 10 mM, HMB 25 μM), FIG. 6
Experimental: This example describes the use of the rat insulinoma cell line (INS-1) to detect the effect of the combination of lysine, arginine, and HMB on the functional characteristics of β-cells in the presence of free fatty acids (e.g., palmitic acid) using standardized protocols for viability. […] The INS-1 cells were maintained in RPMI 1640 medium with 11.1 mmol/L D-glucose supplemented with 10% fetal bovine serum, 100 units/mL penicillin, 100 μg/mL streptomycin, 10 mmol/L HEPES, 2 mmol/L L-glutamine, 1 mmol/L sodium pyruvate, and 50 μmol/L β-mercaptoethanol at 37° C./5% CO2 in a humidified atmosphere.
The pre-confluent pancreatic cells were left either untreated (Control) or treated with palmitate at a concentration of 250 μM for 24 hours in complete medium (Palmitate). Three hours before incubation with palmitate, four different effectors were added: arginine (5 mM), lysine (10 mM), HMB (25 μM), and the combination of arginine (5 mM), lysine (10 mM), and HMB (25 μM).
The cell groups employed in the study were the following: • (i) Control: INS-1 cells without ingredients. • (ii) Palmitate: INS-1 cells incubated in the presence of 250 μM palmitate. • (iii) Palmitate+ARG: INS-1 cells incubated in the presence of 250 μM palmitate and 5 mM of arginine. • (iv) Palmitate+LYS: INS-1 cells incubated in the presence of 250 μM palmitate and 10 mM of lysine. • (v) Palmitate+HMB: INS-1 cells incubated in the presence of 250 μM palmitate and 25 μM of HMB-free acid. • (vi) Palmitate+MIX: INS-1 cells incubated in the presence of 250 μM palmitate and the combination of 5 mM of arginine, 10 mM of lysine, and 25 μM of HMB.
A cell viability assay was performed by the indirect measurement of cell metabolic activity using MTT (3-(4,5-dimethylthiazol-2-yl)-2,5-diphenyltetrazolium bromide). After 24 hours of incubation with the above effectors, the MTT solution (0.5 mg/ml) was added for 30 minutes. The supernatant was removed, 100 μl MTT solvent was added to each well, and the culture plate was shaken for 10 minutes before the Optical Density (OD) values were recorded at 570 nm.

GLUT2 = assay: Expression level of glucose transporter GLUT2 in INS-1 cells; conditions: HMB 25 μM, FIG. 2; for increase in the relative intensity of the expression level of GLUT2 compared to control: lysine 10 mM, arginine 5 mM
Experimental: The INS-1 cells were maintained in RPMI 1640 medium with 11.1 mmol/L D-glucose supplemented with 10% fetal bovine serum, 100 units/mL penicillin, 100 μg/mL streptomycin, 10 mmol/L HEPES, 2 mmol/L L-glutamine, 1 mmol/L sodium pyruvate, and 50 μmol/L β-mercaptoethanol at 37° C./5% CO2 in a humidified atmosphere.
The cells were incubated with different effectors overnight. The following cell groups were employed: • (i) Control: INS-1 cells without ingredients. • (ii) ARG: INS-1 cells incubated in the presence of 5 mM of arginine. • (iii) LYS: INS-1 cells incubated in the presence of 10 mM of lysine. • (iv) HMB: INS-1 cells incubated in the presence of 25 μM of HMB-free acid. • (v) MIX: INS-1 cells incubated in the presence of the combination of 5 mM of arginine, 10 mM of lysine, and 25 μM of HMB.

| SMILES | increase in glucose uptake compared to the control (INS-1 cells [1]) | acute response of insulin secretion to extracellular glucose, with respect to the control (in words) (INS-1 cells [2]) | insulin production compared to the control (in words) (INS-1 cells [3]) | cell viability at 24 hours (in words) (INS-1 cells [4]) | decrease in the relative intensity of the expression level of GLUT2 compared to control (GLUT2) | increase in the relative intensity of the expression level of GLUT2 compared to control (GLUT2) |
| --- | --- | --- | --- | --- | --- | --- |
| CC(C)(O)CC(=O)O [HMB, beta-hydroxy-beta-methylbutyrate] | about 31% | did not show a significant difference | rose slightly | reduced cell viability | ~23% |  |
| N=C(N)NCCC[C@H](N)C(=O)O [arginine] | about 52% | did not show a significant difference | rose slightly | reduced cell viability |  | ~30% |
| NCCCC[C@H](N)C(=O)O [lysine] | about 100% | did not show a significant difference | rose slightly | reduced cell viability |  | ~90% |
